From US8658183B2, “Antimicrobial parenteral formulation” (Taigen Biotechnology Company, Ltd., priority 2007, dated 2014)
≈ marks a conversion by molar mass, not a printed value. Read-outs that look alike come from different tables or passages of the source.

How the values were obtained:
[1] = test system: MRSA; assay: In vitro antibacterial activity, agar dilution; assay type: cell-based, S. aureus
Method: (§1) Various bacterial species, such as Gram positive bacteria (e.g., Clostridium, Staphylococcus and Streptococcus), Gram negative bacteria (e.g., Moraxella, Haemophilus, Pseudomonas, Proteus, and Bacteriodes), anaerobic and atypical pathogens, were isolated from clinical samples. The antibacterial activity of Compound of Formula I against these bacterial species were determined using agar dilution assays described in the U.S. National Committee for Clinical Laboratory, M7-A6, 2003, and M11-A5, 2001.

[2] = test system: staphylococci; assay: In vitro antibacterial activity, agar dilution; assay type: cell-based, Staphylococcus
Method: as §1

[3] = test system: streptococci; assay: In vitro antibacterial activity, agar dilution; assay type: cell-based, Streptococcus
Method: as §1

[4] = test system: S. pneumoniae Stp 6301; assay: In vivo antibacterial efficacy, mouse pulmonary infection model
Method: The in vivo antibacterial efficacy of Compound 1 was evaluated in a mouse model. Mice were anesthetized and infected intranasally with a lethal amount of S. pneumoniae Stp 6301. Twelve, eighteen, and twenty-four hours after the infection, a composition containing Compound 1 or moxifloxacin (as a positive control), 0.7% lactic acid, and 3% dextrose was administered subcutaneously to the mice at a total dose of 50, 25, 12.5, or 6.25 mg/kg. Half of the treated mice were euthanized four hours after the last treatment of Compound 1 or moxifloxacin and their blood and lung tissues were collected. The number of viable bacteria in the blood and lung tissues was then determined. The lung tissues were also subjected to histopathologic evaluation. The other half of the mice were monitored for 6 days and the number of the surviving mice was recorded.

[5] = 5 mg/mL in 5% dextrose
Method: The solution was filtered and transferred to in 100-mL polypropylene bottles. The bottles were capped, sealed, sterilized at 110° C. for 35 min, and stored at 60° C. oven. The solution in the bottles was analyzed on days 0, 5, and 10.

[6] = 5 mg/mL in 0.9% saline
Method: The solution was filtered and transferred to 100-mL polypropylene bottles. The bottles were capped, sealed, sterilized at 110° C. for 35 min, and stored at 60° C. oven. The solution in the bottles was analyzed on days 0, 5, and 10.

[7] = for Appearance: 5 mg/mL (free base) in 0.9% saline, light box 4500Lx+/−500Lx; for UV Absorption: compared with Standard; for UV Absorption / pH Value: intense light 4500Lx+/−500Lx
[8] = Effect of pH on Compound 1 saline formulation; assay type: physicochemical; conditions: 5 mg/mL in 0.9% saline
[9] = Effect of activated charcoal on Compound 1 saline formulation; conditions: 5 mg/mL in 0.9% NaCl
[10] = 0 day, after sterilization (110° C., 35 min)
[11] = activated charcoal added 0.02% (g/mL)
[12] = activated charcoal added 0.05% (g/mL)
[13] = activated charcoal added 0.5% (g/mL)

COc1c(N2C[C@@H](C)C[C@H](N)C2)ccc2c(=O)c(C(=O)O)cn(C3CC3)c12 [Compound 1, (3S,5S)-7-[3-amino-5-methyl-piperidinyl]-1-cyclopropyl-1,4-dihydro-8-methoxy-4-oxo-3-quinolinecarboxylic acid]
MIC90 ([1]; ciprofloxacin-resistant MRSA clinical isolates): 1 µg/mL (≈ 2.69 µM)
MIC90 ([1]; ciprofloxacin-sensitive MRSA clinical isolates): 0.06 µg/mL (≈ 0.162 µM)
MIC values ([2]; all staphylococci in this study): < 2 µg/mL
antibacterial activity (in words) ([2]; including methicillin-resistant S. aureus (MRSA)): especially active
MIC values ([3]; all streptococci in this study): < 1 µg/mL
antibacterial activity (in words) ([3]; including multi-resistant S. pneumoniae): especially active
survival ([4]; lethal intranasal infection, s.c. total dose 50, 25, 12.5 or 6.25 mg/kg (all tested levels), monitored 6 days): 100%
viable bacteria in lung and blood ([4]; mice infected intranasally, s.c. 12, 18, 24 h after infection, total dose 50, 25, 12.5 or 6.25 mg/kg (all levels), 4 h after last treatment, vs vehicle-treated controls): significantly reduced
efficacy compared with moxifloxacin ([4]; same dosage levels, pulmonary infection model): more efficacious than moxifloxacin
Appearance [5, 10]: Clear yellow
Comparative content of Compound 1 (%) [5, 10]: 97.8%
pH [5, 10]: 3.88
Appearance ([5]; 0 day, before sterilization): Clear yellow
Comparative content of Compound 1 (%) ([5]; 0 day, before sterilization): 100.4%
pH ([5]; 0 day, before sterilization): 3.89
Appearance ([5]; 5 days at 60° C.): Dark yellow
Comparative content of Compound 1 (%) ([5]; 5 days at 60° C.): 96.0%
pH ([5]; 5 days at 60° C.): 4.03
Appearance ([5]; 10 days at 60° C.): Brown
Comparative content of Compound 1 (%) ([5]; 10 days at 60° C.): 94.2%
pH ([5]; 10 days at 60° C.): 4.08
Appearance ([6]; sterilized, 0 day): Clear yellow
Comparative content of Compound 1 (%) ([6]; sterilized, 0 day): 102.6%
Total Impurity (%) ([6]; sterilized, 0 day): 0.378%
pH Value ([6]; sterilized, 0 day): 3.90
Appearance ([6]; 5 days at 60° C.): Clear yellow
Comparative content of Compound 1 (%) ([6]; 5 days at 60° C.): 103.2%
Total Impurity (%) ([6]; 5 days at 60° C.): 0.375%
pH Value ([6]; 5 days at 60° C.): 3.88
Appearance ([6]; 10 days at 60° C.): Clear yellow
Comparative content of Compound 1 (%) ([6]; 10 days at 60° C.): 104.0%
Total Impurity (%) ([6]; 10 days at 60° C.): 0.410%
pH Value ([6]; 10 days at 60° C.): 3.88
Appearance ([7]; 0 day): Clear yellow
Appearance ([7]; 5 days): Clear yellow
Appearance ([7]; 10 days): Clear yellow
UV Absorption ([7]; 0 day): Consist with
UV Absorption ([7]; 5 days): Consist with
UV Absorption ([7]; 10 days): Consist with
pH Value ([7]; 0 day): 3.90
pH Value ([7]; 5 days): 3.89
pH Value ([7]; 10 days): 3.89
Appearance ([8]; pH 2.17): clear yellow solution
Comparative content of Compound 1 (%) ([8]; pH 2.17): 96.68%
Appearance ([8]; pH 4.50): clear yellow solution
Comparative content of Compound 1 (%) ([8]; pH 4.50): 101.14%
Appearance ([8]; pH 6.60): White precipitate
Comparative content of Compound 1 (%) ([9]; activated charcoal added 0): 109.0%
pH Value ([9]; activated charcoal added 0, boiled 25 min, filtered, sterilized): 3.96
Comparative content of Compound 1 (%) [9, 11]: 108.8%
pH Value [9, 11]: 3.88
Comparative content of Compound 1 (%) [9, 12]: 109.2%
pH Value [9, 12]: 3.88
Comparative content of Compound 1 (%) [9, 13]: 63.9%
pH Value [9, 13]: 3.80
